Test results reported in US20170002055A1, “Novel peptides and combination of peptides for use in immunotherapy against ovarian cancer and other cancers” (immatics biotechnologies GmbH, priority 2015, published 2017).

What was measured:
CD8+ T cells = assay: In vitro immunogenicity: priming of CD8+ T cells with artificial APCs loaded with peptide/MHC and anti-CD28, multimer readout; format: cell-based, human; conditions: for Wells positive [%]: HLA-A*02 restricted peptides, percentage of positive wells; for donors: HLA-A*02, percentage of positive donors; for wells: HLA-A*02, percentage of positive wells
Description: In order to obtain information regarding the immunogenicity of the TUMAPs of the present invention, the inventors performed investigations using an in vitro T-cell priming assay based on repeated stimulations of CD8+ T cells with artificial antigen presenting cells (aAPCs) loaded with peptide/MHC complexes and anti-CD28 antibody.
In order to perform in vitro stimulations by artificial antigen presenting cells loaded with peptide-MHC complex (pMHC) and anti-CD28 antibody, the inventors first isolated CD8+ T cells from fresh HLA-A*02 leukapheresis products via positive selection using CD8 microbeads (Miltenyi Biotec, Bergisch-Gladbach, Germany) of healthy donors obtained from the University clinics Mannheim, Germany, after informed consent.
PBMCs and isolated CD8+ lymphocytes were incubated in T-cell medium (TCM) until use consisting of RPMI-Glutamax (Invitrogen, Karlsruhe, Germany) supplemented with 10% heat inactivated human AB serum (PAN-Biotech, Aidenbach, Germany), 100 U/ml Penicillin/100 μg/ml Streptomycin (Cambrex, Cologne, Germany), 1 mM sodium pyruvate (CC Pro, Oberdorla, Germany), 20 μg/ml Gentamycin (Cambrex). 2.5 ng/ml IL-7 (PromoCell, Heidelberg, Germany) and 10 U/ml IL-2 (Novartis Pharma, Nürnberg, Germany) were also added to the TCM at this step.
Generation of pMHC/anti-CD28 coated beads, T-cell stimulations and readout was performed in a highly defined in vitro system using four different pMHC molecules per stimulation condition and 8 different pMHC molecules per readout condition.
The purified co-stimulatory mouse IgG2a anti human CD28 Ab 9.3 (Jung et al., 1987) was chemically biotinylated using Sulfo-N-hydroxysuccinimidobiotin as recommended by the manufacturer (Perbio, Bonn, Germany). Beads used were 5.6 μm diameter streptavidin coated polystyrene particles (Bangs Laboratories, Illinois, USA).
pMHC used for positive and negative control stimulations were A*0201/MLA-001 (peptide […] (SEQ ID NO. 664) from modified Melan-A/MART-1) and A*0201/DDX5-001 ([…] from DDX5, SEQ ID NO. 665), respectively.
800.000 beads/200 μl were coated in 96-well plates in the presence of 4×12.5 ng different biotin-pMHC, washed and 600 ng biotin anti-CD28 were added subsequently in a volume of 200 μl. Stimulations were initiated in 96-well plates by co-incubating […] CD8+ T cells with 2×10^5 washed coated beads in 200 μl TCM supplemented with 5 ng/ml IL-12 (PromoCell) for 3 days at 37° C. Half of the medium was then exchanged by fresh TCM supplemented with 80 U/ml IL-2 and incubating was continued for 4 days at 37° C. This stimulation cycle was performed for a total of three times. For the pMHC multimer readout using 8 different pMHC molecules per condition, a two-dimensional combinatorial coding approach was used as previously described (Andersen et al., 2012) with minor modifications encompassing coupling to 5 different fluorochromes. Finally, multimeric analyses were performed by staining the cells with Live/dead near IR dye (Invitrogen, Karlsruhe, Germany), CD8-FITC antibody clone SK1 (BD, Heidelberg, Germany) and fluorescent pMHC multimers. For analysis, a BD LSRII SORP cytometer equipped with appropriate lasers and filters was used. Peptide specific cells were calculated as percentage of total CD8+ cells. Evaluation of multimeric analysis was done using the FlowJo software (Tree Star, Oregon, USA). In vitro priming of specific multimer+ CD8+ lymphocytes was detected by comparing to negative control stimulations.

HLA-A*02:01 = HLA-A*02:01 (Homo sapiens, UniProt P04439, D140Y/D185E/D98H/E176V/E277Q/G131W/G231S/I119V/I121R/I166T/I218V/L300P/L318F/N151K/N90K/P208A/P217A/Q86G/Q94H/R138H/R169H/T345S); assay: MHC binding assay (UV-ligand exchange, β2m ELISA, peptide exchange yield); conditions: MHC class I binding score; binding to HLA-A*02:01 ranged by peptide exchange yield (UV-ligand exchange, β2m ELISA)
How it was run: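 Binding is expressed as peptide exchange yield: stabilized MHC complexes were quantified by β2m ELISA, with a 450 nm TMB read-out on streptavidin-coated plates. Complexes came from UV-ligand exchange, where UV irradiation cleaves a photolabile peptide so the candidate peptide can load.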

| Substance | Wells positive [%] (CD8+ T cells) | Peptide exchange (HLA-A*02:01) | donors (CD8+ T cells) | wells (CD8+ T cells) |
| --- | --- | --- | --- | --- |
| 2 (SLLEADPFL; listed as Homo sapiens) [compound 2] | “+” (<20% = +) | “+++” (≧50 = +++) |  |  |
| 3 (SLASKLTTL; listed as Homo sapiens) [compound 3] | “+” (<20% = +) | “++++” (≧75% = ++++) |  |  |
| 5 (HLTEVYPEL; listed as Homo sapiens) [compound 5] | “+++” (50%-69% = +++) | “+++” (≧50 = +++) |  |  |
| 7 (SLVGLLLYL; listed as Homo sapiens) [compound 7] | “++” (20%-49% = ++) | “++++” (≧75% = ++++) |  |  |
| 8 (FTLGNVVGMYL; listed as Homo sapiens) [compound 8] | “+” (<20% = +) | “++++” (≧75% = ++++) |  |  |
| 11 (KIFEMLEGV; listed as Homo sapiens) [compound 11] | “+” (<20% = +) | “+++” (≧50 = +++) |  |  |
| 17 (GLLPGDRLVSV; listed as Homo sapiens) [compound 17] | “++” (20%-49% = ++) | “+++” (≧50 = +++) |  |  |
| 19 (FMVDNEAIYDI; listed as Homo sapiens) [compound 19] | “++” (20%-49% = ++) | “++++” (≧75% = ++++) |  |  |
| 36 (YVLEDLEVTV; listed as Homo sapiens) [compound 36] | “+” (<20% = +) | “++” (≧20% = ++) |  |  |
| 38 (FLLEDDIHVS; listed as Homo sapiens) [compound 38] | “+” (<20% = +) | “+++” (≧50 = +++) |  |  |
| 40 (TLLVKVFSV; listed as Homo sapiens) [compound 40] | “++” (20%-49% = ++) | “+++” (≧50 = +++) |  |  |
| 48 (ALAELYEDEV; listed as Homo sapiens) [compound 48] | “+” (<20% = +) | “+++” (≧50 = +++) |  |  |
| 49 (YLPAVFEEV; listed as Homo sapiens) [compound 49] | “++” (20%-49% = ++) | “+++” (≧50 = +++) |  |  |
| 56 (KLYEGIPVLL; listed as Homo sapiens) [compound 56] | “+” (<20% = +) | “++++” (≧75% = ++++) |  |  |
| 60 (SLTIDGIYYV; listed as Homo sapiens) [compound 60] | “++++” (> = 70% = ++++) | “++++” (≧75% = ++++) |  |  |
| 61 (FLQGYQLHL; listed as Homo sapiens) [compound 61] | “++” (20%-49% = ++) | “++++” (≧75% = ++++) |  |  |
| 79 (SLFIGEKAVLL; listed as Homo sapiens) [compound 79] | “+” (<20% = +) | “+++” (≧50 = +++) |  |  |
| 108 (ALFPGVALLLA; listed as Homo sapiens) [compound 108] | “++” (20%-49% = ++) | “++++” (≧75% = ++++) |  |  |
| 113 (GLLPTPLFGV; listed as Homo sapiens) [compound 113] | “+” (<20% = +) | “+++” (≧50 = +++) |  |  |
| 118 (KLIDNNINV; listed as Homo sapiens) [compound 118] | “+” (<20% = +) | “+++” (≧50 = +++) |  |  |
| 141 (YLDFSNNRL; listed as Homo sapiens) [compound 141] | “+” (<20% = +) | “++” (≧20% = ++) |  |  |
| 143 (LLLDITPEI; listed as Homo sapiens) [compound 143] | “+” (<20% = +) | “++++” (≧75% = ++++) |  |  |

| Substance | Wells positive [%] (CD8+ T cells) | Peptide exchange (HLA-A*02:01) | donors (CD8+ T cells) | wells (CD8+ T cells) |
| --- | --- | --- | --- | --- |
| 150 (RLWEEGEELEL; listed as Homo sapiens) [compound 150] | “+” (<20% = +) | “+++” (≧50 = +++) |  |  |
| 152 (ILFEDIFDV; listed as Homo sapiens) [compound 152] | “++” (20%-49% = ++) | “+++” (≧50 = +++) |  |  |
| 157 (SLNDEVPEV; listed as Homo sapiens) [compound 157] | “+++” (50%-69% = +++) | “++” (≧20% = ++) |  |  |
| 166 (YLNHLEPPV; listed as Homo sapiens) [compound 166] | “++++” (> = 70% = ++++) | “+++” (≧50 = +++) |  |  |
| 191 (LLQEGQALEYV; listed as Homo sapiens) [compound 191] | “+++” (50%-69% = +++) | “++” (≧20% = ++) |  |  |
| 198 (KTINKVPTV; listed as Homo sapiens) [compound 198] | “++” (20%-49% = ++) | “+++” (≧50 = +++) |  |  |
| 199 (ALQDVPLSSV; listed as Homo sapiens) [compound 199] | “+” (<20% = +) | “+++” (≧50 = +++) |  |  |
| 215 (QLINHLHAV; listed as Homo sapiens) [compound 215] | “++” (20%-49% = ++) | “+++” (≧50 = +++) |  |  |
| 242 (AIAYILQGV; listed as Homo sapiens) [compound 242] | “+++” (50%-69% = +++) | “++” (≧20% = ++) |  |  |
| 247 (VLLPNDLLEKV; listed as Homo sapiens) [compound 247] | “+” (<20% = +) | “+++” (≧50 = +++) |  |  |
| 283 (ALYIGDGYVIHLA; listed as Homo sapiens) [compound 283] |  | “+++” (≧50 = +++) | +++ (50%-69 = +++) | + (<20% = +) |
| 319 (SLEPQIQPV; listed as Homo sapiens) [compound 319] | “+” (<20% = +) | “++” (≧20% = ++) |  |  |
| 384 (ILFANPNIFV; listed as Homo sapiens) [compound 384] | “+” (<20% = +) | “+++” (≧50 = +++) |  |  |
| 621 (VLMDRLPSLL; listed as Homo sapiens) [compound 621] |  | “++++” (≧75% = ++++) |  |  |
| 622 (RLLGEEVVRVLQA; listed as Homo sapiens) [compound 622] |  | “+++” (≧50 = +++) |  |  |
| 623 (YLVEDIQHI; listed as Homo sapiens) [compound 623] |  | “+++” (≧50 = +++) |  |  |
| 635 (SLDSTLHAV; listed as Homo sapiens) [compound 635] |  | “+++” (≧50 = +++) |  |  |
| 648 (LLWGNAIFL; listed as Homo sapiens) [compound 648] |  |  | +++ (50%-69 = +++) | ++ (20%-49% = ++) |
| 652 (TLWYRAPEV; listed as Homo sapiens) [compound 652] |  |  | ++++ (> = 70% = ++++) | +++ (50%-69 = +++) |
| 659 (ILFPDIIARA; listed as Homo sapiens) [compound 659] |  |  | +++ (50%-69 = +++) | + (<20% = +) |
| 662 (KIQEILTQV; listed as Homo sapiens) [compound 662] |  |  | +++ (50%-69 = +++) | + (<20% = +) |
| 663 (KIQEMQHFL; listed as Homo sapiens) [compound 663] |  |  | +++ (50%-69 = +++) | + (<20% = +) |
